Patent US20220332774A1, “THERAPEUTIC MITOCHONDRIAL PEPTIDES” (priority 2019, published 2022)

Columns and labels:
[1] = tested on: H4-IIE Cells; assay: Glucose production in cultured H4-IIE cells; assay type: cell-based, rat; details: glucose concentration in medium relative to untreated cells; 5 μM peptide, 24 h
Method in brief: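 Rat H4-IIE hepatoma cells primed overnight in glucose-free DMEM with 2 mM pyruvate and 10 mM lactate, then treated 24 h at 37 °C with 5 μM peptide (0.1% DMSO; concentration assumes ~2000 Da). Medium glucose measured colorimetrically at 570 nm. Values are percent of untreated-cell glucose production; 0.5-1 nM insulin served as inhibitor reference.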

[2] = tested on: 3T3-L1 Mouse Adipocytes; assay: Free fatty acid levels in cultured 3T3-L1 mouse adipocytes (isoproterenol stimulated); assay type: cell-based; details: free fatty acid in medium; 5 μM peptide, 20-22 h pre-incubation then 3 h with 0.1 nM isoproterenol; isoproterenol alone = 100%
Method in brief: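 3T3-L1 cells differentiated 12 days, insulin withdrawn, then peptides added on day 13 at 5 μM (0.1% DMSO) for 20-22 h at 37° C. After 3 h in assay buffer, medium free fatty acids read at 540 nm. Values expressed as percent of 0.1 nM isoproterenol-alone control.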

[3] = tested on: C2C12 Cells; assay: Glucose utilization in cultured C2C12 cells (myotubes); assay type: cell-based, mouse; details: glucose concentration in medium relative to untreated cells; 5 μM peptide, 22 h
Method in brief: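 Differentiated mouse myotubes (5 days in 2% horse serum) serum-starved 5 h, then treated 22 h at 37 °C with peptide at 5 μM final (0.1% DMSO) in low-glucose (1 g/L) DMEM. Glucose remaining in medium measured colorimetrically at 570 nm. Expressed as percent of untreated control, from 2–3 experiments in triplicate.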

Row | Substance | Percent of Control Activity [1] [%] | Percent of Isoproterenol Control Activity [2] [%] | Percent of Control Activity [3] [%]
1 | 96 (MNHNQYYQSMLIINNHNSYSNKT) [compound 96] | 130 | 100 | 91
2 | 52 (MITVPAHKGMAMA) [compound 52] | 107 | 92 | 104
3 | 157 (MVVKGPLSEGGHPWGREGIWL) [compound 157] | 109 | 106 | 102
4 | 133 (MTLGHNMIYLHTS) [compound 133] | 91 | 107 | 100
5 | 151 (MVNGRRTSVGV) [compound 151] | 90 | 81 | 95
6 | 89 (MMNSDSIIPS) [compound 89] | 110 | 111 | 112
7 | 49 (MHLVFSSGGYARDSIA) [compound 49] | 104 | 87 | 108
8 | 141 (MVEGWLLYLLVSMG) [compound 141] | 103 | 96 | 97
9 | 111 (MQRWFFMSLVVVVVRA) [compound 111] | 91 | 89 | 101
10 | 188 (DWSNWVWGVQLYVWDFLGSGCWAW) [compound 188] | 125 | 104 | 113
11 | 122 (MSNNMAFSTFKG) [compound 122] | 97 | 113 | 103
12 | 32 (MGGEWGMGVWTWGCFLVWM) [compound 32] | 100 | 94 | 108
13 | 95 (MNHIMAKGHDG) [compound 95] | 121 | 111 | 92
14 | 31 (MGEVGLLWLGRI) [compound 31] | 101 | 78 | 107
15 | 84 (MMKGKMKWKVKNRV) [compound 84] | 108 | 99 | 95
16 | 180 (MVVGSWCWSLSWVVGMR) [compound 180] | 106 | 101 | 103
17 | 156 (MVVHWMSGVGLPWLWGVGV) [compound 156] | 106 | 97 | 85
18 | 139 (MTWPTEQVTLGMTAQSYS) [compound 139] | 97 | 91 | 100

Row | Substance | Percent of Control Activity [1] [%] | Percent of Isoproterenol Control Activity [2] [%] | Percent of Control Activity [3] [%]
19 | 93 (MMWKTIVVFQLQEHQWPQYAKLTP) [compound 93] | 120 | 96 | 104
20 | 135 (MTNPENQNERKSVRFIHCPHNP) [compound 135] | 93 | 127 | 109
21 | 57 (MKPFTVHSTLQSNPFSSPWMTPL) [compound 57] | 112 | 102 | 107
22 | 23 (MFHLRYHNHRYPHRRQSI) [compound 23] | 96 | 94 | 99
23 | 194 (LSPKPQQLNQQNCSPEHYEPQLKT) [compound 194] | 109 | 103 | 92
24 | 150 (MVLWWFGGSG) [compound 150] | 87 | 94 | 102
25 | 204 (RMGASIGSTTRLSTS) [compound 204] | 107 | 111 | 95
26 | 183 (MMKVDATMDFT) [compound 183] | 121 | 94 | 101
27 | 114 (MQWAILGLFVVG) [compound 114] | 118 | 76 | 107
28 | 46 (MHHMKHPIIC) [compound 46] | 106 | 98 | 104
29 | 59 (MKSPSTLTTQSKTPSAYFSSFSP) [compound 59] | 108 | 100 | 108
30 | 27 (MGCDDNVVDVVVT) [compound 27] | 100 | 87 | 95
31 | 82 (MMGITMKKIITNAWAVTMTL) [compound 82] | 114 | 98 | 105
32 | 116 (MSGVRKEVSLL) [compound 116] | 123 | 90 | 99
33 | 138 (MTSPKIQNNNTPDHTANNQY) [compound 138] | 92 | 111 | 115
34 | 19 (METDLDYSGLNSDHVGL) [compound 19] | 99 | 89 | 94
35 | 108 (MQFTLATPKCYGPGA) [compound 108] | 104 | 102 | 96
